From paper PMC12024213, “Mechanism Insight of Cell Death Signaling by Thymol Derivatives on Trypanosomatidae Protozoan Parasites” (Antibiotics, 2025)
Like-named read-outs stand apart in the source and are kept apart here.

Key:
[1] = alamarBlue assay on T. cruzi epimastigotes; type: cell-based, Trypanosoma cruzi; settings: mouse; CC50 J774.A1 / IC50 T. cruzi epimastigotes; read-out: Selectivity Trypanosoma SI (CC50/IC50)
Method: (§1) In a 96-well plate, a serial dilution of the tested derivatives was performed in liver infusion tryptose medium supplemented with 10% heat inactivated fetal bovine serum. Later, 100 µL of 5 × 10^5 cells/mL of epimastigotes was added to each well. Afterwards, 20 µL of alamarBlue® was added to each well, and the plate was maintained at 26 °C for 72 h.
(§2) Cytotoxicity effect of the tested derivatives was conducted using macrophages of the murine cell line J774.A1 (American Type Culture Collection #TIB-67, city, country), as previously described. The cells were maintained in DMEM at 37 °C in a 5% CO2 humidified incubator. All the plates containing alamarBlue® were analyzed using a plate reader EnSpire Multimode Plate Reader® at excitation and emission wavelengths of 570 and 585 nm, respectively (PerkinElmer, ThermoFisher Scientific, Madrid, Spain). The IC50 (concentrations able to inhibit 50% of parasites), IC90 (concentrations able to inhibit 90% of parasites), and CC50 (concentration able to inhibit 50% of murine macrophages) values were determined for each compound by nonlinear regression using GraphPad software.

T. cruzi epimastigotes [2] = assay: alamarBlue assay on T. cruzi epimastigotes; type: cell-based, Trypanosoma cruzi; settings: Trypanosoma cruzi
Method: as §1, §2

[3] = test system: L. amazonensis promastigotes; assay: Monodansylcadaverine staining of autophagic vacuoles, L. amazonensis; type: cell-based, Leishmania amazonensis; settings: 24 h treatment, confocal microscopy
Method: The present method consists of staining the autophagic vacuoles with the treated cells by ion trapping and specific interactions with the vesicle membrane lipids. The experiment was carried out by following the manufacturer’s recommendations, and as described previously. After 24 h of incubation, cells were stained with MDC reagent at 5 mM and incubated at 26 °C for 30 min in µ-Slide 8 (Ibidi, Gräfelfing, Germany). Later, the cells were washed with PBS and observed with Leica DMI 4000 B.

intramacrophage T. cruzi = assay: Intramacrophagic stage assay, T. cruzi in J774.A1 macrophages; type: cell-based, Trypanosoma cruzi; settings: Trypanosoma cruzi; intramacrophage stage in J774.A1, 24 h treatment; mean ± SD; read-out: T. cruzi Intracellular IC50
Method: (§3) Briefly, in a 96-well plate, macrophages from the J774.A1 cell line were seeded at a final concentration of 2 × 10^5 cells/mL in Dulbecco’s Modified Eagle Medium (DMEM) and maintained at 37 °C in a 5% CO2 atmosphere until fully adhesion. Cells were infected either with L. amazonensis promastigotes (at a ratio of 1:10) or epimastigotes of T. cruzi (at a ratio of 1:7) (macrophage: parasite) and incubated at 37 °C in 5% CO2 for 24 h for Leishmania and 48 h for Trypanosoma. After infection, plates were washed using DMEM to eliminate external parasites. Subsequently, infected macrophages were treated with different concentrations of active compounds for 24 h. Later, macrophages were lysed using 30 μL of medium, Schneider for Leishmania, and in liver infusion tryptose for Trypanosoma, containing 0.05% of sodium dodecyl sulfate (SDS) for 30 s under agitation. Afterwards, 170 μL of the appropriated medium was derivatives added to each well to give a final volume of 200 μL. Subsequently, 10% of alamarBlue® was added into each well and the plate was incubated at 26 °C for 72 h.
as §2

[4] = as above; type: cell-based, Trypanosoma cruzi; settings: mouse; CC50 J774.A1 / IC50 intracellular T. cruzi; read-out: Selectivity Trypanosoma SI (CC50/IC50)
Method: as §3, §2

[5] = Intramacrophagic stage assay, L. amazonensis in J774.A1 macrophages; type: cell-based, Leishmania amazonensis; settings: mouse; CC50 J774.A1 / IC50 intracellular L. amazonensis; read-out: Selectivity Leishmania SI (CC50/IC50)
Method: as §3, with “fully adhesion. […] After infection,” for “fully adhesion. Cells were infected either with L. amazonensis promastigotes (at a ratio of 1:10) or epimastigotes of T. cruzi (at a ratio of 1:7) (macrophage: parasite) and incubated at 37 °C in 5% CO2 for 24 h for Leishmania and 48 h for Trypanosoma. After infection,”, “72 h. Cytotoxicity effect of the tested derivatives was conducted using macrophages of the murine cell line J774.A1 (American Type Culture Collection #TIB-67, city, country), as previously described. The cells were maintained in DMEM at 37 °C in a 5% CO2 humidified incubator.” for “72 h.”

[6] = test system: intramacrophage L. amazonensis; assay: as above; type: cell-based, Leishmania amazonensis; settings: Leishmania amazonensis; intramacrophage stage in J774.A1, 24 h treatment; mean ± SD; read-out: L. amazonensis Intracellular IC50
Method: as §3, with “fully adhesion. […] After infection,” for “fully adhesion. Cells were infected either with L. amazonensis promastigotes (at a ratio of 1:10) or epimastigotes of T. cruzi (at a ratio of 1:7) (macrophage: parasite) and incubated at 37 °C in 5% CO2 for 24 h for Leishmania and 48 h for Trypanosoma. After infection,”, “72 h. Cytotoxicity effect of the tested derivatives was conducted using macrophages of the murine cell line J774.A1 (American Type Culture Collection #TIB-67, city, country), as previously described. The cells were maintained in DMEM at 37 °C in a 5% CO2 humidified incubator.” for “72 h.”

T. cruzi epimastigotes [7] = assay: Hoechst/PI double stain, chromatin condensation, T. cruzi; type: cell-based, Trypanosoma cruzi; settings: IC90, 24 h
Text: (§4) To identify the type of cell death occurring in both kinetoplastids after treatment, Hoechst 33342 and propidium iodide (PI) dyes were used. Even though both dyes are DNA affine, the Hoechst 33342 stain is cell permeable and known to distinguish apoptotic cells from healthy or necrotic cells, whereas the PI is cell impermeable and stain dead cells as late apoptotic or necrosis. After treatment, three types of staining could be observed: blue fluorescence for cells undergoing apoptosis, violet color as the merge of blue and red fluorescence for late apoptotic cells, and red color for dead cells.

L. amazonensis = assay: ATP level, CellTiter-Glo, L. amazonensis; type: cell-based, Leishmania amazonensis; settings: IC90, 24 h, luminescence
Method: (§5) The adenosine triphosphate (ATP) level was measured using the CellTiter-Glo Luminescent Cell Viability Assay (Promega, Madrid, Spain). The mitochondria in which most cellular oxidations occur is considered the main source of cell’s ATP; any damage and/or malfunction of this organelle generate the depletion of ATP levels.

[8] = Cytotoxicity assay on murine macrophages (alamarBlue); type: cell-based; settings: mouse, J774.A1 macrophage cell line, mean ± SD
Method: as §2

[9] = test system: L. amazonensis promastigotes; assay: Hoechst/PI double stain, chromatin condensation, L. amazonensis; type: cell-based, Leishmania amazonensis; settings: IC90, 24 h
Text: as §4

T. cruzi = assay: ATP level, CellTiter-Glo, T. cruzi; type: cell-based, Trypanosoma cruzi; settings: IC90, 24 h, luminescence
Method: as §5

[10] = 72 h, epimastigotes, alamarBlue, 72 h at 26 °C, mean ± SD, triplicates, read-out: T. cruzi Epimastigote IC50

Row | SMILES | selectivity ratio [1] | IC50 (T. cruzi epimastigotes [2]; [10]) | autophagic vacuoles (MDC staining) [3] | IC50 (intramacrophage T. cruzi) | selectivity ratio [4] | selectivity ratio [5] | IC50 [6] | chromatin condensation (Hoechst/PI staining) (T. cruzi epimastigotes [7]) | decrease of ATP production compared to negative control (L. amazonensis) | CC50 [8] | chromatin condensation (Hoechst/PI staining) [9] | decrease of ATP production compared to negative control (T. cruzi) | IC50 (T. cruzi epimastigotes [2]; abstract, stage not stated, read-out: IC50 against T. cruzi (abstract))
1 | COc1ccc(C(=O)Oc2cc(C)ccc2C(C)C)cc1 [Derivative 9, thymyl anysoate] | > 11.2 | 26.8 ± 2.2 µM | Induction of autophagy | 9.1 ± 0.5 µM | > 33 | > 19.7 | 15.2 ± 0.8 µM | increasing the chromatin condensation | 84% | > 300 µM | increasing the chromatin condensation | 65% | –
2 | Cc1ccc(C(C)C)c(OC(=O)c2ccccn2)c1 [Derivative 10, thymyl picolinate] | 7.2 | 35.5 ± 2.5 µM | Induction of autophagy | 28.8 ± 5.6 µM | 8.8 | 10.1 | 25.3 ± 0.8 µM | increasing the chromatin condensation | 67% | 254.5 ± 1.9 µM | increasing the chromatin condensation | 50% | 25.2 µM
